Source: PubChem BioAssay (NCI)
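1) Cells in 96-well plates. 2) Compound, 48 h, 5 concentrations. 3) Linear interpolation between surrounding doses. 4) Unreached endpoint = highest concentration. TGI: concentration producing complete growth inhibition.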

How the values were obtained:
Test in all cases: inhibition of tumour cell growth, NCI panel, 48 h
[1] = system: RPMI-8226 leukemia
[2] = system: RXF 393 renal
[3] = system: TK-10 renal
[4] = system: A498 renal
[5] = system: SW-620 colon
[6] = system: CCRF-CEM leukemia
[7] = system: COLO 205 colon
[8] = system: HT29 colon
[9] = system: SK-OV-3 ovarian
[10] = system: OVCAR-5 ovarian

SMILES | TGI [1] [µM] | TGI [2] [µM] | TGI [3] [µM] | TGI [4] [µM] | TGI [5] [µM] | TGI [6] [µM] | TGI [7] [µM] | TGI [8] [µM] | TGI [9] [µM] | TGI [10] [µM]
O=C(O)C1C(C(=O)O)C2C(=O)C=CC1N2Cc1ccccc1 (stereo not given) | 13.6 | 7.51 | 11.4 | 42.6 | 11.6 | 2.75 | 22.1 | 12.6 | 17 | 20.5
CC1=NC(=O)C(C)(c2ccccc2)N1CCc1ccccc1 (stereo not given) | > 100 | > 100 | > 100 | > 100 | > 100 | > 100 | > 100 | > 100 | > 100 | > 100
COc1cc(Br)c(OC)c2c(OC)cc(C)cc12 | > 100 | > 100 | > 100 | > 100 | > 100 | > 100 | > 100 | > 100 | > 100 | > 100
COc1cc2c(/C=C3/C(=O)Nc4ccc(Cl)cc43)c(Cl)n(Cc3ccccc3)c2cc1C | 6.9 | 5.18 | 3.76 | 5.72 | > 100 | 6.78 | 6.36 | > 100 | 4.41 | 7.06
